From ChEMBL document CHEMBL1201862, “PubChem BioAssay data set” (2004) come the findings set out here.

Calls of active or inactive are those of the source. Where only a bound is given, the exact number is not on record here.

For assay [1], the target named is Peroxisome proliferator-activated receptor gamma/Nuclear receptor corepressor 2 (Homo sapiens, UniProt P37231+Q9Y618). Description: Counterscreen for NR2E3 inverse agonists: TR-FRET-based biochemical high throughput dose response assay to identify inverse agonists of the interaction between peroxisome proliferator-activated receptor gamma (PPARg) and nuclear receptor co-repressor 2 (NCOR2). It counts as functional. A general note: Counterscreens check selectivity or assay interference.

Assay [2] concerns the target Photoreceptor-specific nuclear receptor (Homo sapiens, UniProt Q9Y5X4). Description: ligands suppressing NR2E3 nuclear receptor activity – biochemical, TR-FRET, dose response (AID 463256). The assay is classed as functional.
Assay [3] deals with T1, Tyrosine-protein phosphatase non-receptor type 7 (Homo sapiens, UniProt P35236).
T1 sequence (P35236 whole entry): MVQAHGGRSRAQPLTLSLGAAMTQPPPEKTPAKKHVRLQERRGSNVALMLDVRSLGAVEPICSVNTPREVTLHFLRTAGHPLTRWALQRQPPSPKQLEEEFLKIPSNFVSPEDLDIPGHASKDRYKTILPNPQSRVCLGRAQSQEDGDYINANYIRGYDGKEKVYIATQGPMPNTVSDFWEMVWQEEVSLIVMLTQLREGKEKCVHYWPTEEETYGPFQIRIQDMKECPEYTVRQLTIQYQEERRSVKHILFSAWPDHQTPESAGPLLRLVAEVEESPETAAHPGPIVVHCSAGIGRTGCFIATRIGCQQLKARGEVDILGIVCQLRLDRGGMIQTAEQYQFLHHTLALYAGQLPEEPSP
Description: Dose Response confirmation of compounds that inhibit HePTP. [Related pubchem assays (depositor defined):AID1059, AID1661, AID2085]. It counts as functional.

The target in assay [4] is Dual specificity protein phosphatase 3 (Homo sapiens, UniProt P51452). The assay can be described thus: Dose Response Confirmation of compounds that inhibit VHR1 in Fluorescent Assay. [Related pubchem assays (depositor defined):AID1661, AID1878]. It counts as functional.
Assay [5] addresses T2, Calpain-2 catalytic subunit (Sus scrofa, UniProt P43367).
T2 sequence (P43367 whole entry): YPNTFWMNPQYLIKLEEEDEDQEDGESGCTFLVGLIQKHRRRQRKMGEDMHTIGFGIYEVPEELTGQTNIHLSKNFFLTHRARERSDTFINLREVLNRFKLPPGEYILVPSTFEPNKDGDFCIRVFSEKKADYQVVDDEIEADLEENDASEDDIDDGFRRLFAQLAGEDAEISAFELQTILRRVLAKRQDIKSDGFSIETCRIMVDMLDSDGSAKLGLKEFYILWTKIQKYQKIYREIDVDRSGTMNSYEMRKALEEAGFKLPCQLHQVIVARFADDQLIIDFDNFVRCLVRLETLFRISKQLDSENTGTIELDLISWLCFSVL
Description: m-calpain protease blockers, concentration series – biochemical, fluorogenic peptide substrate, dose response (AID 1420). It counts as functional.

The target of assay [6] is T3, Replicative DNA helicase DnaB (Mycobacterium tuberculosis, UniProt P9WMR3).
T3 sequence (P9WMR3 whole entry): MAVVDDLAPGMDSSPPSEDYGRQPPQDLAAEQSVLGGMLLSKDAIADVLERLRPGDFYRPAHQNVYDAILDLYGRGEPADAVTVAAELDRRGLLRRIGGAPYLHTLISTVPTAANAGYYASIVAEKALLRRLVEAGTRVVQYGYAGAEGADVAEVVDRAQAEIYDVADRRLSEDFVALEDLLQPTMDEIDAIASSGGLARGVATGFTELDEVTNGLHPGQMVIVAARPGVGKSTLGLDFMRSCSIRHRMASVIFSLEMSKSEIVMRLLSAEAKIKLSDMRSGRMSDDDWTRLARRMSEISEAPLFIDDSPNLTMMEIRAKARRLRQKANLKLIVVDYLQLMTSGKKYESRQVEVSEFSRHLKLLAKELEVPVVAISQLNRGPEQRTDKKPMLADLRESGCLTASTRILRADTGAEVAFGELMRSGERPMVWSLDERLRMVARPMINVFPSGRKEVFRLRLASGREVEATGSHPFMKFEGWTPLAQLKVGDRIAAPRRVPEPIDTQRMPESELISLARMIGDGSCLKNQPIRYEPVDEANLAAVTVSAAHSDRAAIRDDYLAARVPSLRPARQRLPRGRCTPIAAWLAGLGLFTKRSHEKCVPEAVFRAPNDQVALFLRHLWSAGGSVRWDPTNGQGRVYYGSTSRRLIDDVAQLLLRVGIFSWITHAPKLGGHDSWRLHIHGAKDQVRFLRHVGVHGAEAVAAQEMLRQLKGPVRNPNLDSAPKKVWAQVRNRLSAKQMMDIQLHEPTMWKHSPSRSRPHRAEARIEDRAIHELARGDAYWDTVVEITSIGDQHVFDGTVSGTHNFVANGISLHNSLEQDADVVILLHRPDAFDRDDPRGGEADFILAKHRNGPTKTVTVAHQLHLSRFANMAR
The assay can be described thus: DnaB intein splicing inhibitors, dose response, biochemical, cell-free fluorescence (AID 449749). The assay is classed as functional.

The next assay concerns the target T4, Protein RecA (Mycobacterium tuberculosis, UniProt P9WHJ3).
T4 sequence (P9WHJ3 whole entry): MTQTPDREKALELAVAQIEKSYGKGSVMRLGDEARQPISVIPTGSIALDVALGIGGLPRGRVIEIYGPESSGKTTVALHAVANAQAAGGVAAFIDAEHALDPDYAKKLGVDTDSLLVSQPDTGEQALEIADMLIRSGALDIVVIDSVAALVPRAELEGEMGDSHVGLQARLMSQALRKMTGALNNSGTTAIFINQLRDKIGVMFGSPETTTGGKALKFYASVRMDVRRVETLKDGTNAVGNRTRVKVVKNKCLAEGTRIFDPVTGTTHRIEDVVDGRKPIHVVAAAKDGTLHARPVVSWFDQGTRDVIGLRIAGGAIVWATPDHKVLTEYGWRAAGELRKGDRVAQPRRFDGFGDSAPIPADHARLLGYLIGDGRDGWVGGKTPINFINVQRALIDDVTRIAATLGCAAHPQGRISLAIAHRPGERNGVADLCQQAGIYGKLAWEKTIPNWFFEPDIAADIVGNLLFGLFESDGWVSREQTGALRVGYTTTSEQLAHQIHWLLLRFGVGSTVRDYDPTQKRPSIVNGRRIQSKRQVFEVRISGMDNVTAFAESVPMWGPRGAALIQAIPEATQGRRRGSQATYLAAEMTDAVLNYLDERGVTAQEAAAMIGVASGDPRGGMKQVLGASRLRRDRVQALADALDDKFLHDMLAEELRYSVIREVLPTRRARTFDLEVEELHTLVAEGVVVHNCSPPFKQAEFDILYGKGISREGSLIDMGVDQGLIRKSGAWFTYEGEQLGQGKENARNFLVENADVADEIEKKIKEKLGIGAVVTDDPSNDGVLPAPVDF
The assay can be described thus: Fluorescence Cell-Free Homogeneous Dose Retest to Identify Inhibitors of RecA-Intein Splicing Activity. [Related pubchem assays (depositor defined):AID2097, AID2223, AID489010, AID492950]. The assay is classed as functional.

The test system of assay [7] is BJ. Description: growth inhibition of engineered Ras-driven BJ cells – cell-based, alamar blue fluorescence, cherrypicked samples, dose response (AID 2631).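 Further: confirmatory dose-response assay in RAS-dependent BJ fibroblasts engineered with TERT, LT and ST, with cytotoxicity read by fluorescence.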 To be noted: Homo sapiens. The assay is classed as functional. In general terms: Resazurin is reduced to fluorescent resorufin, in cell work by metabolically active cells.
In assay [8] the test system is BJ. The assay can be described thus: BJ-TERT-LT-ST fibroblast viability loss – cell-based, RAS-independent, luminescence, dose response (AID 1935).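 Further: BJ fibroblasts immortalized with TERT plus LT and ST oncogenes.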 The assay is classed as functional. The note with it: Homo sapiens.
Assay [9] deals with BJ. Description: cells. It counts as functional, cell-based. The note with it: Homo sapiens.
Assay [10] is described as follows: DRD fibroblast viability loss – cell-based, non-viral oncogenic, luminescence, dose response (AID 1934). It counts as functional. The note with it: Homo sapiens.
Assay [11] is described as follows: Intein inhibitors as potential Tuberculosis drugs, a cytotoxicity screen. [Related pubchem assays (depositor defined):AID2221, AID2223, AID434968, AID435010, AID449749, AID449750, AID489010]. It counts as functional.
For assay [12], the system named is BJ. The assay can be described thus: BJ-TERT fibroblast viability loss – cell-based, RAS-independent, luminescence, dose response (AID 1933). It counts as functional. To be noted: Homo sapiens.
For another assay, the target named is T5, Coagulation factor XII (Homo sapiens, UniProt P00748).
T5 sequence (P00748 whole entry): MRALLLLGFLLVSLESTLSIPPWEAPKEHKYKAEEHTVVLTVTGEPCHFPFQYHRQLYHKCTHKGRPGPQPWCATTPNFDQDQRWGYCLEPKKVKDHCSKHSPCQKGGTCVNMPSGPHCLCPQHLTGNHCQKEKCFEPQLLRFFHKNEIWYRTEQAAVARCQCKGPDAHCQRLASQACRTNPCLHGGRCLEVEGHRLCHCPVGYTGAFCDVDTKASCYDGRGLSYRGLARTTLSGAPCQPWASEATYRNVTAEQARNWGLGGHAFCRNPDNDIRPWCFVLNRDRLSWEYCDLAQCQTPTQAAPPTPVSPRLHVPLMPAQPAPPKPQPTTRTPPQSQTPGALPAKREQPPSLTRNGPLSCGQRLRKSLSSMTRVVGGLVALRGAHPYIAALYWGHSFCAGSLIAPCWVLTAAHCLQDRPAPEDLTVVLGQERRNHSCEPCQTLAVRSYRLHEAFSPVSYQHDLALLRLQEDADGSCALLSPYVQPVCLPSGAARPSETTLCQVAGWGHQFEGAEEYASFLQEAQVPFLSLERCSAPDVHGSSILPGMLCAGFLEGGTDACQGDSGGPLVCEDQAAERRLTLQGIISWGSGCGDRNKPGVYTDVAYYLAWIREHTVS
The assay can be described thus: Factor XIIa Dose Response Confirmation from Single Well HTS. [Related pubchem assays (depositor defined):AID701]. It counts as functional.

Assay [13] deals with G-protein coupled receptor 55 (Homo sapiens, UniProt Q9Y2T6). The assay can be described thus: selective activators of receptor GPR55 – imaging, U2OS cells, beta-arrestin-GFP redistribution, primary screen (AID 1961). The assay is classed as functional.
The target in another assay is Mu-type opioid receptor (Homo sapiens, UniProt P35372). Description: SAR Analysis of Antagonists of the MOR Receptor using an Image-Based Assay - Set 3. [Related pubchem assays (depositor defined):AID1777, AID1785, AID1786, AID1966, AID2133, AID2136, AID2284, AID2285, AID2420]. It counts as functional.
Assay [14] addresses T6, Kappa-type opioid receptor (Homo sapiens, UniProt P41145). The assay can be described thus: SAR analysis of Antagonists of the Kappa Opioid Receptor (KOR) using an Image-Based Assay - Set 3. [Related pubchem assays (depositor defined):AID1777, AID1785]. The assay is classed as functional.
In assay [15] the target is Delta-type opioid receptor (Homo sapiens, UniProt P41143). Description: SAR Analysis of Antagonists of the DOR Receptor using an Image-Based Assay - Set 3. [Related pubchem assays (depositor defined):AID1777, AID1785]. It counts as functional.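 Further: U2OS cells expressing DOR1 and beta-arrestin GFP stimulated with 100 nM SNC80; imaging of GFP-tagged beta-arrestin moving into spots after receptor activation.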
Assay [16] deals with T6, Kappa-type opioid receptor. The assay can be described thus: SAR analysis of small molecule antagonists of the kappa opioid receptor via a luminescent beta-arrestin assay - Set 3. [Related pubchem assays (depositor defined):AID1777, AID1778, AID1785, AID1786, AID1966, AID2133, AID2136, AID2285, AID2495]. The assay is classed as functional.
Assay [17] deals with Sphingosine 1-phosphate receptor 4 (Homo sapiens, UniProt O95977). The assay can be described thus: Late-stage fluorescence dose response cell-based assay to identify agonists of the Sphingosine 1-Phosphate Receptor 4 (S1P4): purchased compounds EC50. [Related pubchem assays (depositor defined):AID1509, AID1523, AID1563, AID1686, AID1701, AID1801]. The assay is classed as functional.

Broadly, the IC50 is the concentration at which inhibition is half-maximal. What is called AC50 is the concentration giving half of the maximal activity seen. What is called EC50 is the concentration at which the effect is half-maximal. The term CC50 denotes the concentration that lowers cell viability or growth by half.
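Wherever CC50 is given: cells exposed to compound for 72 hours before luminescence readout.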

T6 sequence (P41145 whole entry): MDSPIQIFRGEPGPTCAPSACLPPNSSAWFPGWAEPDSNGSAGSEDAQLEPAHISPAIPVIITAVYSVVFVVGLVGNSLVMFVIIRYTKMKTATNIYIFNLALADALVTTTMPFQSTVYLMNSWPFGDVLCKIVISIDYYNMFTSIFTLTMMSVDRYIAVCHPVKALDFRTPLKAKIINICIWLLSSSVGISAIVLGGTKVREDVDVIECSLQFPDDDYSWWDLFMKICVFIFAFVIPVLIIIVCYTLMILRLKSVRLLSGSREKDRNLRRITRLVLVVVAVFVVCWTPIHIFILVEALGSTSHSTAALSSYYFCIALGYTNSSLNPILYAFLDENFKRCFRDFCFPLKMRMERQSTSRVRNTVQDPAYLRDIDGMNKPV
Peroxisome proliferator-activated receptor gamma/Nuclear receptor corepressor 2, sequence (P37231 whole entry): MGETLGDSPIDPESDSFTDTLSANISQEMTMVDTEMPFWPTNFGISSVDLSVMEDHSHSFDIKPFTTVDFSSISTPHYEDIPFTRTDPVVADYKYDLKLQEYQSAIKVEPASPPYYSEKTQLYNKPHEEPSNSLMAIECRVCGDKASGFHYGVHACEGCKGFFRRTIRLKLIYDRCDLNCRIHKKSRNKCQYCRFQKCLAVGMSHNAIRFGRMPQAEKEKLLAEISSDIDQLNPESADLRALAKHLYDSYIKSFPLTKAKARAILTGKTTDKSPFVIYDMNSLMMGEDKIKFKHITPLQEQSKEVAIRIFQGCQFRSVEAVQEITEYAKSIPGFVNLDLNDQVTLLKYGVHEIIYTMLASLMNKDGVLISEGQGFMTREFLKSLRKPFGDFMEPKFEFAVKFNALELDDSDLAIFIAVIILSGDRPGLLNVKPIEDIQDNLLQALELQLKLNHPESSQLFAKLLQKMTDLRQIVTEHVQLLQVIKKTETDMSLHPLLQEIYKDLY
Peroxisome proliferator-activated receptor gamma/Nuclear receptor corepressor 2, sequence (Q9Y618 whole entry): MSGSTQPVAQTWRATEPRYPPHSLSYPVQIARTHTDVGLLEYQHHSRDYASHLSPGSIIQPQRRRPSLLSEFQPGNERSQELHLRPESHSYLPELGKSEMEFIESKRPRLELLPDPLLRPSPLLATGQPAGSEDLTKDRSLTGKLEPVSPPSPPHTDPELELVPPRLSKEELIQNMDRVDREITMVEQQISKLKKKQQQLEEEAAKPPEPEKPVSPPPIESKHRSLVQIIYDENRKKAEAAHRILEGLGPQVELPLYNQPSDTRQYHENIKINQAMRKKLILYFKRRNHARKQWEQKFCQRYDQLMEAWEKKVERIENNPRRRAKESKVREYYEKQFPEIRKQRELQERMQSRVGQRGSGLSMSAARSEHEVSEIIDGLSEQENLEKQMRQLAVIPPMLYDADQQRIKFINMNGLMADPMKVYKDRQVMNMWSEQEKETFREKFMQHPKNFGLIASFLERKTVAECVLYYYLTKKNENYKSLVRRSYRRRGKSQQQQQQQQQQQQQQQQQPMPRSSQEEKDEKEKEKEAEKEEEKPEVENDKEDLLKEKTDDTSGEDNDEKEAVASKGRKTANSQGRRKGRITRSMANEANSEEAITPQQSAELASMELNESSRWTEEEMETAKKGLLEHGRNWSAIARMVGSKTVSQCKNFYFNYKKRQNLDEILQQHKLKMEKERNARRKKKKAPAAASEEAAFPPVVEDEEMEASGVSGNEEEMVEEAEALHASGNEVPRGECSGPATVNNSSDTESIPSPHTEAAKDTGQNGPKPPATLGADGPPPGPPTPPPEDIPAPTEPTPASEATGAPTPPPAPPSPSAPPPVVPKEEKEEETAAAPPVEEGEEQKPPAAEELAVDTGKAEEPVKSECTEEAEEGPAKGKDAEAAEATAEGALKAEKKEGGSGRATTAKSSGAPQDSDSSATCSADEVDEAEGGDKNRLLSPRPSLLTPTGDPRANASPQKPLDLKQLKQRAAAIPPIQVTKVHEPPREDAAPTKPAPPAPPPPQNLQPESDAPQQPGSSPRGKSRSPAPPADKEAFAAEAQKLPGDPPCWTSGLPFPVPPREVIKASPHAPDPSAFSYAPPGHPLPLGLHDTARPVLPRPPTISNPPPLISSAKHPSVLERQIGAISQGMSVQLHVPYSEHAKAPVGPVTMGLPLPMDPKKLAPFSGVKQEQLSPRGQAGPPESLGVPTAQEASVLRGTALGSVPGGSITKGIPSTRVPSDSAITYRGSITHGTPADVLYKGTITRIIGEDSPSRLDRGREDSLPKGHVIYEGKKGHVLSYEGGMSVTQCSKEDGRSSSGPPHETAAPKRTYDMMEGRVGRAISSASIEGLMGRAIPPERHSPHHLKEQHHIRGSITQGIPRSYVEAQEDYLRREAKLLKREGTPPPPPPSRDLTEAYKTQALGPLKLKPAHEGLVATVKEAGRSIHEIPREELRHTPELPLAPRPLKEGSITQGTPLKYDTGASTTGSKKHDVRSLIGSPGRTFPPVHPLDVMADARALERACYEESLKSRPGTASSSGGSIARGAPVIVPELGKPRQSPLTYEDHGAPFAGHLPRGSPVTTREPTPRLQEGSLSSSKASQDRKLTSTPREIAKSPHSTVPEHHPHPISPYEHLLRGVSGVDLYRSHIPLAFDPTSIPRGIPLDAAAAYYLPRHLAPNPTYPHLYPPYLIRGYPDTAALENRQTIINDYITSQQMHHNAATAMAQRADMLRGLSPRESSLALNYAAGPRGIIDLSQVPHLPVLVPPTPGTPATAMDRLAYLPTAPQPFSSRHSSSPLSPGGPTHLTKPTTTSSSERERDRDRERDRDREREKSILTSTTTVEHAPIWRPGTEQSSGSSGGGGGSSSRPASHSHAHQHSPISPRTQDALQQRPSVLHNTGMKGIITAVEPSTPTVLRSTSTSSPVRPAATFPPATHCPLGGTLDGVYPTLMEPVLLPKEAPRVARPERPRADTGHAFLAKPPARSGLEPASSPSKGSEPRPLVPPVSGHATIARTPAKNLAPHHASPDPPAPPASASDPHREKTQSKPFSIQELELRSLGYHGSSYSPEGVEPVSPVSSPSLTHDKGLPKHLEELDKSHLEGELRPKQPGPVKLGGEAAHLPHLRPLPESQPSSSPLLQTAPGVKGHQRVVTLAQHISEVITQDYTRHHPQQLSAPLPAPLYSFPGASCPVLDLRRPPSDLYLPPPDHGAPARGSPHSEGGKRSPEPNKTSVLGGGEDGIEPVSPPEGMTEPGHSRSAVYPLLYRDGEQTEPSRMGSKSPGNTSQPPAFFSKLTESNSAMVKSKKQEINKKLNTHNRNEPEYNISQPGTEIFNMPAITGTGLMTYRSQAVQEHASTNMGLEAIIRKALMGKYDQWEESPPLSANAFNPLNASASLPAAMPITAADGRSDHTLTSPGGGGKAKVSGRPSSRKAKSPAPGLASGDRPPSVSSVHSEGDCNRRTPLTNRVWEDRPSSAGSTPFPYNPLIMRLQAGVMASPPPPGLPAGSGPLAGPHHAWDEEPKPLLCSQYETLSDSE
G-protein coupled receptor 55, sequence (Q9Y2T6 whole entry): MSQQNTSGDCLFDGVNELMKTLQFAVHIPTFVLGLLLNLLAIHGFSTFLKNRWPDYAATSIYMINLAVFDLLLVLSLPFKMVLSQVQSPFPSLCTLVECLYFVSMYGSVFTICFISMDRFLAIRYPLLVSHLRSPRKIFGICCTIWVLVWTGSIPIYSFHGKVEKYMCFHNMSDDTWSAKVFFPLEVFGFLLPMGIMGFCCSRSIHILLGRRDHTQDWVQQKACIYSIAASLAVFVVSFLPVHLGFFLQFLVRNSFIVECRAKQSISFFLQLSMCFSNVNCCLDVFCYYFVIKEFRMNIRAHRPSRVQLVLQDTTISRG
Photoreceptor-specific nuclear receptor, sequence (Q9Y5X4 whole entry): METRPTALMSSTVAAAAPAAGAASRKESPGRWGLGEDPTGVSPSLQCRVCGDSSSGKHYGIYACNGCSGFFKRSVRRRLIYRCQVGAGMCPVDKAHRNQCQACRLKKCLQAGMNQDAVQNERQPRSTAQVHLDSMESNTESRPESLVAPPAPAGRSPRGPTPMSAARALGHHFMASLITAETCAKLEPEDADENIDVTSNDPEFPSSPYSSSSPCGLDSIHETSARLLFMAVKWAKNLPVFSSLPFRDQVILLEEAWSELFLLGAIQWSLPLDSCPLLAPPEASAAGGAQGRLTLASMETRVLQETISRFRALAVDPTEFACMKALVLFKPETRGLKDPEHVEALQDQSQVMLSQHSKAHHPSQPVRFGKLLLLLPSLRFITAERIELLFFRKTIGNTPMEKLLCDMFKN
Dual specificity protein phosphatase 3, sequence (P51452 whole entry): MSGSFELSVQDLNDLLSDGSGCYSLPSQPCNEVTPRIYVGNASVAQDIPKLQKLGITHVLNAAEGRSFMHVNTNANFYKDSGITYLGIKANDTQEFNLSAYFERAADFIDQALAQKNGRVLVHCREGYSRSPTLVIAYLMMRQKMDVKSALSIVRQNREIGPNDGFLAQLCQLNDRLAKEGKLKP
Delta-type opioid receptor, sequence (P41143 whole entry): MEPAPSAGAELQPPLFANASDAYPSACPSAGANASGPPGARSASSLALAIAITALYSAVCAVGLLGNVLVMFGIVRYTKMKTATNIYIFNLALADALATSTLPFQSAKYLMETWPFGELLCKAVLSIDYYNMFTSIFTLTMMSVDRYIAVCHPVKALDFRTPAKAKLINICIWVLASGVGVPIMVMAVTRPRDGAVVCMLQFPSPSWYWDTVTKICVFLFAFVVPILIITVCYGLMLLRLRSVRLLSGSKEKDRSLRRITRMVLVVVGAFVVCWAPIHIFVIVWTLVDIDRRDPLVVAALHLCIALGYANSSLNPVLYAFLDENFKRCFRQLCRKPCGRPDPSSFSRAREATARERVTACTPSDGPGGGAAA

As for `O=C(Nc1ccc2oc(-c3cccnc3)nc2c1)c1ccc2c(c1)OCCO2`, the IC50 in [1] was 1460 nM (active); in [2] it was 1610 nM (active); in [3], 5360 nM (active); in assay [4], 8430 nM (active).

Turning to `Cc1ccc(N(C(=O)CCl)C(C(=O)NC2CCCCC2)c2cccnc2)cc1C` (stereo not given), the IC50 in [5] was 34700 nM (not active). In [6], the AC50 was 2300 nM (active). The 50% effective concentration (EC50) at Protein RecA is 339 nM (active); with BJ [7] it was 147 nM (active); with BJ [8], 3950 nM (active); with BJ [9], 1250 nM (active); in [10] it was 413 nM (active); in the assay on BJ [12], 171 nM (inconclusive). Besides, the CC50 in assay [11] was 100 nM (active).

Consider `Cc1ccccc1CNCc1cccnc1`, for which the IC50 on Coagulation factor XII is > 50000 nM (inactive).

Turning to `COc1ccc2cc(C)c3nnc(SCC(=O)Nc4nc(-c5ccccc5)cs4)n3c2c1`, in assay [13], the EC50 is 1030 nM (active).

In the case of `CC(C)N(CCNC(=O)c1ccc(CNS(=O)(=O)c2ccc(Br)cc2)cc1)Cc1ccc(Br)cc1`, the IC50 at Mu-type opioid receptor is > 32000 nM (inactive); in assay [14] it was 2030 nM (active); in assay [15] it was > 32000 nM (inactive); in assay [16] it was > 20000 nM (inactive).

On to `COc1ccc(CNC(=O)C(C)OC(=O)c2c(C)nn(Cc3ccccc3)c2Cl)cc1` (stereo not given), for which, in assay [17], the EC50 was > 50000 nM (inactive).
